Assay [1] concerns the target T1, BRD4 (BDI_K57-E168) (Homo sapiens, UniProt O60885).
T1 construct: BD1: amino acids K57-E168; made in house
The experiment in a line: TR-FRET bromodomain binding assay, BRD4 first bromodomain. As to conditions: His-tagged BD1, Alexa647-labeled probe 100 nM; Ki calculated from IC50. Put shortly:
(§1)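 His-tagged BRD4 BD1 (K57-E168) or BD2 at 8 nM, 1 nM Eu-anti-His antibody and Alexa647 BET-inhibitor probe (100 nM for BDI, 30 nM for BDII) in pH 6.0 phosphate buffer, 2% DMSO, compound 50 μM-0.85 nM; 1 h at RT, TR-FRET read. IC50 by 4-parameter fit, Ki from probe Kd and concentration.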

The target of assay [2] is T2, BRD4 (BDII_E352-M457) (Homo sapiens, UniProt O60885).
T2 construct: made in house
Put plainly: TR-FRET bromodomain binding assay, BRD4 second bromodomain. As to conditions: His-tagged BD2, Alexa647-labeled probe 30 nM; Ki calculated from IC50. Put shortly: as §1

The subject of assay [3] is breast cancer cell line MX-1. The experiment in a line: MX-1 cell line proliferation assay. The assay is classed as cell-based. As to conditions: Homo sapiens, MX1, 72 h, MX-1 cells, 3-day proliferation assay, Cell Titer Glo; read-out: Cellular proliferation: EC50. How it is done:
The impact of compounds of the Examples on cancer cell proliferation was determined using the breast cancer cell line MX-1 (ATCC) in a 3-day proliferation assay and the data are reported in Table 1. MX-1 cells were maintained in RPMI 1640 medium (Sigma) supplemented with 10% FBS at 37° C. and an atmosphere of 5% CO2. For compound testing, MX-1 cells were plated in 96-well black bottom plates at a density of 5000 cells/well in 90 μL of culture media and incubated at 37° overnight to allow cell adhesion and spreading. Compound dilution series were prepared in DMSO via a 3-fold serial dilution from 3 mM to 0.1 μM. The DMSO dilution series were then diluted 1:100 in phosphate buffered saline, and 10 μL of the resulted solution were added to the appropriate wells of the MX-1 cell plate. The final compound concentrations in the wells were 3, 1, 0.3, 0.1, 0.03, 0.01, 0.003, 0.001, 0.0003 and 0.0001 μM.
Luminescence readings from the Cell Titer Glo assay were normalized to the DMSO treated cells and analyzed using the GraphPad Prism software with sigmoidal curve fitting to obtain EC50s. The minimum significant ratio (MSR) was determined to evaluate assay reproducibility (Eastwood et al., (2006) J Biomol Screen, 11: 253-261).
For orientation: ATP-based viability assays read luminescence as a measure of living cells.

A value given as a limit tells only on which side of the number the result lay.

`Cc1[nH]c(-c2ccccc2Oc2ccc(-n3ccnc3)cc2)cc1C(N)=O` [Example 135, 5-{2-[4-(1H-imidazol-1-yl)phenoxy]phenyl}-2-methyl-1H-pyrrole-3-carboxamide]: the values for the Ki in assay [1] and in assay [2] were 355 nM and 1860 nM, respectively. For the same molecule, the EC50 in assay [3] was above 10000 nM.

As to `Cc1[nH]c(-c2ccccc2Oc2cccc(Cl)c2)cc1C(N)=O` [Example 142, 5-[2-(3-chlorophenoxy)phenyl]-2-methyl-1H-pyrrole-3-carboxamide], the Ki in assay [1] was 357 nM; in assay [2], 775 nM. In addition, the EC50 in assay [3] was 2130 nM.

On to `Cc1[nH]c(-c2ccccc2Oc2ccc(F)cc2)cc1C(N)=O` [Example 141, 5-[2-(4-fluorophenoxy)phenyl]-2-methyl-1H-pyrrole-3-carboxamide], for which the Ki in assay [1] was 123 nM; in assay [2] it was 1600 nM. The EC50 in assay [3] worked out at 2420 nM.

As for `Cc1[nH]c(-c2ccccc2NC2CCSCC2)cc1C(N)=O` [Example 68, 2-methyl-5-[2-(tetrahydro-2H-thiopyran-4-ylamino)phenyl]-1H-pyrrole-3-carboxamide], the figures for the inhibition constant Ki in assay [1] and in assay [2] were 151 nM and 2590 nM, respectively. In addition, the EC50 in assay [3] was determined as 1130 nM.

For the molecule `Cc1[nH]c(-c2ccccc2NCCC2CCNCC2)cc1C(N)=O` [Example 47, 2-methyl-5-(2-{[2-(piperidin-4-yl)ethyl]amino}phenyl)-1H-pyrrole-3-carboxamide], the Ki in assay [1] is 498 nM; in assay [2] it was 7830 nM. Moreover, the EC50 in assay [3] is above 10000 nM.

Take `Cc1[nH]c(-c2ccccc2NCC2CCCO2)cc1C(N)=O` (stereo not drawn) [Example 13, 2-methyl-5-{2-[(tetrahydrofuran-2-ylmethyl)amino]phenyl}-1H-pyrrole-3-carboxamide]: the Ki in assay [1] was 774 nM; in assay [2], 4540 nM. Further, the EC50 in assay [3] was found to be 3300 nM.

For `Cc1[nH]c(-c2ccccc2NS(=O)(=O)Cc2ccc(Cl)cc2)cc1C(N)=O` [Example 85, 5-(2-{[(4-chlorobenzyl)sulfonyl]amino}phenyl)-2-methyl-1H-pyrrole-3-carboxamide], the Ki in assay [1] was 1850 nM; in assay [2], 13200 nM. The EC50 in assay [3] was above 3000 nM.

Take `COc1ccc(Oc2ccccc2-c2cc(C(N)=O)c(C)[nH]2)cc1` [Example 137, 5-[2-(4-methoxyphenoxy)phenyl]-2-methyl-1H-pyrrole-3-carboxamide]: the Ki in assay [1] was 218 nM; in assay [2], 1020 nM. Also, the EC50 in assay [3] came out at 4880 nM.

As for `Cc1[nH]c(-c2ccccc2NS(=O)(=O)Cc2ccccc2)cc1C(N)=O` [Example 83, 5-{2-[(benzylsulfonyl)amino]phenyl}-2-methyl-1H-pyrrole-3-carboxamide], the Ki is 237 nM in assay [1] and 653 nM in assay [2]. The EC50 in assay [3] is above 3000 nM.

Consider `Cc1[nH]c(-c2ccccc2NS(=O)(=O)C2CCCC2)cc1C(N)=O` [Example 87, 5-{2-[(cyclopentylsulfonyl)amino]phenyl}-2-methyl-1H-pyrrole-3-carboxamide], for which the Ki is 366 nM in assay [1] and 465 nM in assay [2]. Besides, the EC50 in assay [3] was above 3000 nM.

For the molecule `Cc1[nH]c(-c2ccccc2N(Cc2ccc(OCCCN(C)C)cc2)CC2CCCC2)cc1C(N)=O` [Example 57, 5-{2-[(cyclopentylmethyl){4-[3-(dimethylamino)propoxy]benzyl}amino]phenyl}-2-methyl-1H-pyrrole-3-carboxamide], the results for the Ki in assay [1] and in assay [2] were 392 nM and 1900 nM, respectively. Moreover, the EC50 in assay [3] is above 3000 nM.

For the molecule `Cc1[nH]c(-c2ccccc2Oc2cccc(C#N)c2)cc1C(N)=O` [Example 127, 5-[2-(3-cyanophenoxy)phenyl]-2-methyl-1H-pyrrole-3-carboxamide], the Ki was 233 nM in assay [1] and 1040 nM in assay [2]. In addition, the EC50 in assay [3] stood at 2000 nM.

For the molecule `Cc1cccc(Oc2ccccc2-c2cc(C(N)=O)c(C)[nH]2)c1` [Example 134, 2-methyl-5-[2-(3-methylphenoxy)phenyl]-1H-pyrrole-3-carboxamide], the Ki was 493 nM in assay [1] and 1170 nM in assay [2]. The EC50 in assay [3] is above 10000 nM.

`COC/C=C/c1ccc(-c2cc(C(N)=O)c(C)[nH]2)cc1` [Example 107, 5-{4-[(1E)-3-methoxyprop-1-en-1-yl]phenyl}-2-methyl-1H-pyrrole-3-carboxamide]: the Ki in assay [1] is 4020 nM; in assay [2] it was 1980 nM. Moreover, the EC50 in assay [3] stood at 8600 nM.

With `Cc1[nH]c(-c2ccccc2NCc2ccc(O)cc2)cc1C(N)=O` [Example 54, 5-{2-[(4-hydroxybenzyl)amino]phenyl}-2-methyl-1H-pyrrole-3-carboxamide], the values for the Ki in assay [1] and in assay [2] were 585 nM and 3880 nM, respectively. Besides, the EC50 in assay [3] turned out to be 190 nM.

As for `Cc1[nH]c(-c2cccc(-c3ccc(C(=O)NCCN(C)C)cc3)c2)cc1C(N)=O` [Example 159, 5-(4′-{[2-(dimethylamino)ethyl]carbamoyl}biphenyl-3-yl)-2-methyl-1H-pyrrole-3-carboxamide], the Ki in assay [1] is 1080 nM; in assay [2], 2100 nM. In addition, the EC50 in assay [3] came out at 28600 nM.

For the molecule `Cc1[nH]c(-c2ccccc2NC[C@H]2CC[C@@H](NC(=O)OC(C)(C)C)CC2)cc1C(N)=O` [Example 45, tert-butyl [cis-4-({[2-(4-carbamoyl-5-methyl-1H-pyrrol-2-yl)phenyl]amino}methyl)cyclohexyl]carbamate], the Ki in assay [1] was 434 nM; in assay [2] it was 9290 nM. Also, the EC50 in assay [3] was 5440 nM.

Take `Cc1[nH]c(-c2ccccc2NCC2CCNC2)cc1C(N)=O` (stereo not drawn) [Example 42, 2-methyl-5-{2-[(pyrrolidin-3-ylmethyl)amino]phenyl}-1H-pyrrole-3-carboxamide]: the Ki was 446 nM in assay [1] and 14500 nM in assay [2]. In addition, the EC50 in assay [3] was above 10000 nM.

Take `CCCCNc1ccccc1-c1cc(C(N)=O)c(C)[nH]1` [Example 27, 5-[2-(butylamino)phenyl]-2-methyl-1H-pyrrole-3-carboxamide]: the Ki was 384 nM in assay [1] and 1480 nM in assay [2]. For the same molecule, in assay [3], the EC50 was 1300 nM.

Take `Cc1[nH]c(-c2ccccc2NC2CCCCC2)cc1C(N)=O` [Example 62, 5-[2-(cyclohexylamino)phenyl]-2-methyl-1H-pyrrole-3-carboxamide]: the Ki in assay [1] is 197 nM; in assay [2], 1240 nM. For the same molecule, the EC50 in assay [3] was found to be 520 nM.

Turning to `Cc1[nH]c(-c2ccccc2NCc2ccccc2)cc1C(N)=O` [Example 12, 5-[2-(benzylamino)phenyl]-2-methyl-1H-pyrrole-3-carboxamide], the inhibition constant Ki was 935 nM in assay [1] and 3900 nM in assay [2]. For the same molecule, in assay [3], the EC50 was 3440 nM.

`Cc1ccc(-c2cc(C(N)=O)c(C)[nH]2)c(C)c1` [Example 90, 5-(2,4-dimethylphenyl)-2-methyl-1H-pyrrole-3-carboxamide]: the Ki was 2500 nM in assay [1] and 5180 nM in assay [2]. The EC50 in assay [3] is 6300 nM.

On to `Cc1[nH]c(-c2ccccc2-n2cnc3cc(O)ccc32)cc1C(N)=O` [Example 146, 5-[2-(5-hydroxy-1H-benzimidazol-1-yl)phenyl]-2-methyl-1H-pyrrole-3-carboxamide], for which the Ki in assay [1] was 74.9 nM; in assay [2], 326 nM. Moreover, in assay [3], the EC50 worked out at 1610 nM.

As for `Cc1[nH]c(-c2ccccc2Oc2ccc(N)cc2)cc1C(N)=O` [Example 119, 5-[2-(4-aminophenoxy)phenyl]-2-methyl-1H-pyrrole-3-carboxamide], the Ki in assay [1] is 249 nM; in assay [2] it was 1100 nM. The EC50 in assay [3] worked out at 998 nM.

`Cc1[nH]c(-c2ccccc2Oc2ccc3ccccc3c2)cc1C(N)=O` [Example 139, 2-methyl-5-[2-(naphthalen-2-yloxy)phenyl]-1H-pyrrole-3-carboxamide]: the results for the Ki in assay [1] and in assay [2] were 728 nM and 1190 nM, respectively. Further, the EC50 in assay [3] was 8560 nM.

As to `COC(=O)CCc1ccccc1Oc1ccccc1-c1cc(C(N)=O)c(C)[nH]1` [Example 133, methyl 3-{2-[2-(4-carbamoyl-5-methyl-1H-pyrrol-2-yl)phenoxy]phenyl}propanoate], the inhibition constant (Ki) in assay [1] is 310 nM; in assay [2] it was 576 nM. Moreover, the EC50 in assay [3] is 1830 nM.

For `Cc1[nH]c(-c2ccccc2NC[C@H]2CC[C@H](NC(=O)OC(C)(C)C)CC2)cc1C(N)=O` [Example 46, tert-butyl [trans-4-({[2-(4-carbamoyl-5-methyl-1H-pyrrol-2-yl)phenyl]amino}methyl)cyclohexyl]carbamate], the Ki is 426 nM in assay [1] and 16300 nM in assay [2]. The EC50 in assay [3] was 4950 nM.

One may read the Ki as the dissociation constant of the complex between target and ligand, obtained from inhibition or displacement.

(Values after patent publication US9493411B2 (AbbVie Inc., priority 2013, dated 2016).)
